In ChEMBL document CHEMBL1152717, “Discovery of mu-opioid selective ligands derived from 1-aminotetralin scaffolds made via metal-catalyzed ring-opening reactions” (Bioorg Med Chem Lett, 2009):

Columns and labels:
Mu-type opioid receptor [1] = target: T1, Mu-type opioid receptor (Homo sapiens, UniProt P35372); assay: Agonist activity at human cloned mu opioid receptor by [35S]GTPgammaS binding assay; assay type: functional
[2] = target: Kappa-type opioid receptor (Homo sapiens, UniProt P41145); assay: Displacement of [125I]U69593 from human cloned kappa opioid receptor
Mu-type opioid receptor [3] = target: T1, Mu-type opioid receptor; assay: Displacement of [125I]FK33824 from human cloned mu opioid receptor
Mu-type opioid receptor [4] = target: T1, Mu-type opioid receptor; details: at 100 µM
Description: Intrinsic activity at human cloned mu opioid receptor at 100 uM by [35S]GTPgammaS binding assay relative to DAMGO

[5] = target: Delta-type opioid receptor (Homo sapiens, UniProt P41143); assay: Displacement of [125I]deltorphin 2 from human cloned delta opioid receptor
Sequence of Delta-type opioid receptor (P41143 whole entry): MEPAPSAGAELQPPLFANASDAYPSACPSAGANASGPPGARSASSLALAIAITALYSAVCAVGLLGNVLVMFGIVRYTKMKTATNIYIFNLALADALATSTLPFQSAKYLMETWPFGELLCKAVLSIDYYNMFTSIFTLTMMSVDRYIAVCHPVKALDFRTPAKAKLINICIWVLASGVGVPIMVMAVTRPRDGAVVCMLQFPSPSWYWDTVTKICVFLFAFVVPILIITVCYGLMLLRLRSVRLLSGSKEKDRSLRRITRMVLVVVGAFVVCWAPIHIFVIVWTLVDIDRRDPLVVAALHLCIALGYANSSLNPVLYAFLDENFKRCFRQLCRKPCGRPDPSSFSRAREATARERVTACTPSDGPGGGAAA

Sequence of Kappa-type opioid receptor (P41145 whole entry): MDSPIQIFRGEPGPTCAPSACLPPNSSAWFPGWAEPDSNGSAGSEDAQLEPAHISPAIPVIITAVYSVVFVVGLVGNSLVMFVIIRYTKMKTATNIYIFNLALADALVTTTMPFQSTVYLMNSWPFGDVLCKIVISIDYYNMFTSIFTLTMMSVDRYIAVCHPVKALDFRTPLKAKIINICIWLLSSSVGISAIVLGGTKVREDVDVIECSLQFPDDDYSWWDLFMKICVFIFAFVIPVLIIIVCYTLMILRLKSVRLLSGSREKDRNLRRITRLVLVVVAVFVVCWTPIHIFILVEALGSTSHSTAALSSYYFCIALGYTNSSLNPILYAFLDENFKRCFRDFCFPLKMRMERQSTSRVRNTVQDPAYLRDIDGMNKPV
T1 sequence (P35372 whole entry): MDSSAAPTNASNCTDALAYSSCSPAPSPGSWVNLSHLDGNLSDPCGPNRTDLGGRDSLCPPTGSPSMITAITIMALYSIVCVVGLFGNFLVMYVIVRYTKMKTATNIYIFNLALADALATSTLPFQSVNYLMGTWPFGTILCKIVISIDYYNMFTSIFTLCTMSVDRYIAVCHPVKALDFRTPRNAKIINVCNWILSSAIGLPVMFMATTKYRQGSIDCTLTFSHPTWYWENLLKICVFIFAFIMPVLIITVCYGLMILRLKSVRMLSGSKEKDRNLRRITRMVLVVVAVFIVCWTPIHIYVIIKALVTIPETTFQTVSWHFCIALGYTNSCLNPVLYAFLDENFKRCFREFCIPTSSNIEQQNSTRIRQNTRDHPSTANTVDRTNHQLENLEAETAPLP

SMILES	EC50 (Mu-type opioid receptor [1])	IC50 [2]	IC50 (Mu-type opioid receptor [3])	Emax (Mu-type opioid receptor [4])	IC50 [5]
COCCN(C(=O)c1ccc(Cl)c(Cl)c1)C1c2ccccc2C=CC1N1CCN(c2ccccc2)CC1 (racemic)	> 90000 nM	> 10000 nM	443 nM	60%	3620 nM
COCCN(C(=O)c1sccc1Cl)[C@H]1c2ccccc2C=C[C@@H]1N1CCN(c2ccccc2)CC1	–	–	2800 nM	–	–
COCCN(C(=O)Cc1ccc(Cl)cc1)C1c2ccccc2C=CC1N1CCN(c2ccccc2)CC1 (racemic)	> 90000 nM	7990 nM	181 nM	0%	1950 nM
COCCN(C(=O)COCc1ccccc1)C1c2ccccc2C=CC1N1CCN(c2ccccc2)CC1 (racemic)	> 90000 nM	> 10000 nM	211 nM	10%	3890 nM
COCCN(C(=O)c1sccc1Cl)[C@@H]1c2ccccc2C=C[C@H]1N1CCN(c2ccccc2)CC1	–	1320 nM	58 nM	–	1240 nM
COCCN[C@@H]1c2ccccc2CC[C@H]1c1ccsc1	–	707 nM	–	–	3800 nM
COCCNC1c2ccccc2CCC1c1ccsc1 (racemic)	–	2210 nM	–	–	–
C[C@@]12CCCCC[C@@H](Cc3ccc(O)cc31)[C@@H]2N	–	–	–	6%	–
COCCN(C(=O)c1cc(C)nn1C)C1c2ccccc2CCC1c1ccsc1 (racemic)	–	> 10000 nM	4860 nM	–	1270 nM
COCCN(C(=O)Cc1cccc(OC)c1)C1c2ccccc2C=CC1N1CCN(c2ccccc2)CC1 (racemic)	> 90000 nM	> 10000 nM	151 nM	10%	1470 nM
COCCN(C(=O)c1sccc1Cl)C1c2ccccc2C=CC1N1CCN(c2ccccc2)CC1 (racemic)	> 90000 nM	7140 nM	100 nM	0%	2290 nM
